Results reported in article PMC6256987, “Investigating the Activity Spectrum for Ring-Substituted 8-Hydroxyquinolines” (Molecules, 2010).
Converted amounts (≈) assume the structure as drawn. “And” between values parts separate entries of the source, which are not always exact repeats. Equal values may be shown once. Read-outs that look alike come from different tables or passages of the source.

Legend:
[1] = system: photosynthetic electron transport (PET) in spinach chloroplasts; set-up: method as in earlier work; settings: standard, read-out: PET reduction IC50; cited from earlier work
M. absessus CIT21/06 = test: In vitro antimycobacterial evaluation (alamarBlue, 96 well plate); assay type: cell-based; settings: Middlebrook broth, 37 °C overnight, read-out: MIC/IC90 M. absessus
Candida glabrata 20/I = test: In vitro antifungal broth microdilution test; assay type: cell-based; settings: Nakaseomyces glabratus, 20/I, 35 °C, RPMI 1640 pH 7.0, CLSI M27-A2 (IC80 value)
[2] = system: Trichophyton mentagrophytes 445; test: In vitro antifungal broth microdilution test; assay type: cell-based
[3] = system: Candida albicans ATCC 44859; test: In vitro antifungal broth microdilution test; assay type: cell-based; settings: Candida albicans, ATCC44859, 35 °C, RPMI 1640 pH 7.0, CLSI M27-A2 (IC80 value)
[4] = Lipophilicity determination by RP-HPLC (capacity factor k / log k); assay type: physicochemical; settings: C18 column, isocratic MeOH 55.0% / H2O 45.0%
From the text: A Waters Alliance 2695 XE HPLC separation module and Waters Photodiode Array Detector 2996 (Waters Corp., Milford, MA, USA) were used. A Symmetry® C18 5 μm, 4.6 × 250 mm, Part No. WAT054275, (Waters Corp., Milford, MA, USA) chromatographic column was used. The HPLC separation process was monitored by Millennium32® Chromatography Manager Software, Waters 2004 (Waters Corp., Milford, MA, USA). A mixture of MeOH p.a. (55.0%) and H2O-HPLC– Mili-Q Grade (45.0%) was used as a mobile phase. The total flow of the column was 0.9 mL/min, injection 30 μL, column temperature 30 °C and sample temperature 10 °C. The detection wavelength 210 nm was chosen. The KI methanolic solution was used for the dead time (tD) determination. Retention times (tR) were measured in minutes.
The capacity factors k were calculated using the Millennium32® Chromatography Manager Software according to formula k = (tR - tD)/tD, where tR is the retention time of the solute, whereas tD denotes the dead time obtained via an unretained analyte. Log k, calculated from the capacity factor k, is used as the lipophilicity index converted to log P scale.

[5] = system: Aspergillus fumigatus 231; test: In vitro antifungal broth microdilution test; assay type: cell-based; settings: Aspergillus fumigatus, 231, 35 °C, RPMI 1640 pH 7.0, CLSI M38-A (IC50 value)
[6] = system: photosynthetic electron transport (PET) in spinach chloroplasts; test: Inhibition of photosynthetic electron transport (PET) in spinach chloroplasts, DCPIP photoreduction; assay type: biochemical, Spinacia oleracea L.; settings: DCPIP as electron acceptor, phosphate buffer pH 7.2, read-out: PET reduction IC50
Method: Chloroplasts were prepared from spinach (Spinacia oleracea L.) according to Masarovicova and Kralova. The inhibition of photosynthetic electron transport (PET) in spinach chloroplasts was determined spectrophotometrically (Genesys 6, Thermo Scientific, USA) using an artificial electron acceptor 2,6-dichlorophenol-indophenol (DCIPP) according to Kralova et al. and the rate of photosynthetic electron transport was monitored as a photoreduction of DCPIP. The measurements were carried out in phosphate buffer (0.02 mol/L, pH 7.2) containing sucrose (0.4 mol/L), MgCl2 (0.005 mol/L) and NaCl (0.015 mol/L). The chlorophyll content was 30 mg/L in these experiments and the samples were irradiated (~100 W/m^2) from 10 cm distance with a halogen lamp (250 W) using a 4 cm water filter to prevent warming of the samples (suspension temperature 22 °C). The studied compounds were dissolved in DMSO due to their limited water solubility. […] The inhibitory efficiency of the studied compounds was expressed by IC50 values, i.e., by molar concentration of the compounds causing 50% decrease in the oxygen evolution rate relative to the untreated control.

[7] = system: Trichosporon beigelii 1188; test: In vitro antifungal broth microdilution test; assay type: cell-based; settings: Trichosporon beigelii, 1188, 35 °C, RPMI 1640 pH 7.0, CLSI M27-A2 (IC80 value), read-out: MIC TB
Method: Fluconazole (FLU) was used as the standard of a clinically used antimycotic drug. The procedure was performed with twofold dilution of the compounds in RPMI 1640 (Sevapharma a.s., Prague, Czech Republic) buffered to pH 7.0 with 0.165 mol of 3-morpholino-propane-1-sulfonic acid (MOPS, Sigma, Germany). The final concentrations of the compounds ranged from 500 to 0.975 μmol/L. Drug–free controls were included. The MIC determination was performed according to the CLSI (formerly NCCLS) reference protocol M27-A2 for yeasts (IC80 value) and M38-A for moulds (IC50 value). […] The values of MICs were determined after 24 and 48 h of static incubation at 35 °C. For T. mentagrophytes, the final MICs were determined after 72 and 120 h of incubation.

M. kansasii CIT11/06 = test: In vitro antimycobacterial evaluation (alamarBlue, 96 well plate); assay type: cell-based; settings: Mycobacterium kansasii, CIT11/06, 120 h, Middlebrook broth, 37 °C 5 days, read-out: MIC/IC90 M. kansasii
[8] = system: Mycobacterium avium complex CIT19/06; test: as above; assay type: cell-based; settings: 120 h, Middlebrook broth, 37 °C 5 days, read-out: MIC/IC90 M. avium complex
Candida krusei ATCC 6258 = test: In vitro antifungal broth microdilution test; assay type: cell-based; settings: Pichia kudriavzevii, ATCC6258, 35 °C, RPMI 1640 pH 7.0, CLSI M27-A2 (IC80 value)
Candida tropicalis 156 = test: In vitro antifungal broth microdilution test; assay type: cell-based; settings: Candida tropicalis, 156, 35 °C, RPMI 1640 pH 7.0, CLSI M27-A2 (IC80 value)
M. smegmatis MC2155 = test: In vitro antimycobacterial evaluation (alamarBlue, 96 well plate); assay type: cell-based; settings: Mycolicibacterium smegmatis, Middlebrook broth, 37 °C overnight, read-out: MIC/IC90 M. smegmatis
Absidia corymbifera 272 = test: In vitro antifungal broth microdilution test; assay type: cell-based; settings: Lichtheimia corymbifera, 272, 35 °C, RPMI 1640 pH 7.0, CLSI M38-A (IC50 value)
[9] = Trichophyton mentagrophytes, 445, 120 h, pH 7
[10] = Trichophyton mentagrophytes, 445, 72h, RPMI 1640 pH 7.0, CLSI M38-A (IC50 value)

Row | SMILES | MIC (M. absessus CIT21/06) | MIC (Candida glabrata 20/I; 24h) | MIC (Candida glabrata 20/I; 48h) | MIC [2, 9] | MIC [2, 10] | MIC ([3]; 24h) | MIC ([3]; 48h) | log k [4] | MIC ([5]; 24h) | MIC ([5]; 48h) | IC50 [6] | MIC ([7]; 24h) | MIC ([7]; 48h) | MIC (M. kansasii CIT11/06) | MIC [8] | MIC (Candida krusei ATCC 6258; 24h) | MIC (Candida krusei ATCC 6258; 48h) | MIC (Candida tropicalis 156; 24h) | MIC (Candida tropicalis 156; 48h) | MIC (M. smegmatis MC2155) | other results
1 | CN(C)C(=O)Nc1ccc(Cl)c(Cl)c1 [DCMU, 3-(3,4-dichlorophenyl)-1,1-dimethylurea] |  |  |  |  |  |  |  |  |  |  |  |  |  |  |  |  |  |  |  |  | IC50 [1]: ~1900 nM and 1900 nM
2 | Oc1c(Cl)cc(Cl)c2ccc(C=Cc3ccc(C=Cc4ccc5c(Cl)cc(Cl)c(O)c5n4)cc3)nc12 [Compound 14, 5,7-Dichloro-2-(2-{4-[2-(5,7-dichloro-8-hydroxyquinolin-2-yl)vinyl]phenyl}vinyl)quinolin-8-ol] | 130 µg/mL (≈ 235 µM) | 0.49 µM (≈ 0.272 µg/mL) | 1.95 µM (≈ 1.08 µg/mL) | 7.81 µM (≈ 4.33 µg/mL) | 3.9 µM (≈ 2.16 µg/mL) | 0.98 µM (≈ 0.543 µg/mL) | 3.9 µM (≈ 2.16 µg/mL) | 2.5760 | 3.9 µM (≈ 2.16 µg/mL) | 15.6 µM (≈ 8.66 µg/mL) | 334 µM | 3.9 µM (≈ 2.16 µg/mL) | 15.6 µM (≈ 8.66 µg/mL) | 40 µg/mL (≈ 72.2 µM) | > 300 µg/mL | 0.98 µM (≈ 0.543 µg/mL) | 1.95 µM (≈ 1.08 µg/mL) | 1.95 µM (≈ 1.08 µg/mL) | 7.81 µM (≈ 4.33 µg/mL) | 40 µg/mL (≈ 72.2 µM) | MIC (Absidia corymbifera 272; 24h): 15.6 µM (≈ 8.66 µg/mL); MIC (Absidia corymbifera 272; 48h): 31.2 µM (≈ 17.3 µg/mL)
3 | Oc1ccc(C=Cc2ccc3c(Cl)cc(Cl)c(O)c3n2)cc1 [Compound 10, 5,7-Dichloro-2-[2-(4-hydroxyphenyl)vinyl]quinolin-8-ol] | > 300 µg/mL | 125 µM (≈ 41.5 µg/mL) | > 125 µM | 62.5 µM (≈ 20.8 µg/mL) | 15.6 µM (≈ 5.19 µg/mL) | 125 µM (≈ 41.5 µg/mL) | > 125 µM | 1.5866 | 125 µM (≈ 41.5 µg/mL) | 125 µM (≈ 41.5 µg/mL) | 660 µM | 125 µM (≈ 41.5 µg/mL) | > 125 µM | > 300 µg/mL | > 300 µg/mL | 125 µM (≈ 41.5 µg/mL) | > 125 µM | 125 µM (≈ 41.5 µg/mL) | > 125 µM | 150 µg/mL (≈ 452 µM) | MIC (Absidia corymbifera 272; 24h): 31.2 µM (≈ 10.4 µg/mL); MIC (Absidia corymbifera 272; 48h): 62.5 µM (≈ 20.8 µg/mL)
4 | Oc1cc(O)cc(C=Cc2ccc3c(Cl)cc(Cl)c(O)c3n2)c1 [Compound 12, 5,7-Dichloro-2-[2-(3,5-dihydroxyphenyl)vinyl]quinolin-8-ol] | > 300 µg/mL | > 125 µM | > 125 µM | 15.6 µM (≈ 5.44 µg/mL) | 15.6 µM (≈ 5.44 µg/mL) | > 125 µM | > 125 µM | 1.5867 | 125 µM (≈ 43.5 µg/mL) | 125 µM (≈ 43.5 µg/mL) | 341 µM | > 125 µM | > 125 µM | > 300 µg/mL | > 300 µg/mL | > 125 µM | > 125 µM | > 125 µM | > 125 µM | > 100 µg/mL | MIC (Absidia corymbifera 272; 24h): 62.5 µM (≈ 21.8 µg/mL); MIC (Absidia corymbifera 272; 48h): 62.5 µM (≈ 21.8 µg/mL)
